Results: patent US8883782B2, “Spiro-tetracyclic ring compounds as beta-secretase modulators and methods of use” (Amgen Inc., priority 2010, dated 2014)
pIC50: −log10 of the molar value. Where two headings read alike, the source gives them in different places.

Assays:
[1] = biological target: Beta Secretase enzyme (BACE) (Homo sapiens, UniProt P56817); experiment: In vitro enzymatic BACE FRET (fluorescence resonance energy transfer) assay; format: biochemical; settings: for pIC50: average IC50, enzyme assay, read-out: BACE 1 FRET assay
Beta Secretase enzyme (BACE), sequence (P56817 46-501, species assumed): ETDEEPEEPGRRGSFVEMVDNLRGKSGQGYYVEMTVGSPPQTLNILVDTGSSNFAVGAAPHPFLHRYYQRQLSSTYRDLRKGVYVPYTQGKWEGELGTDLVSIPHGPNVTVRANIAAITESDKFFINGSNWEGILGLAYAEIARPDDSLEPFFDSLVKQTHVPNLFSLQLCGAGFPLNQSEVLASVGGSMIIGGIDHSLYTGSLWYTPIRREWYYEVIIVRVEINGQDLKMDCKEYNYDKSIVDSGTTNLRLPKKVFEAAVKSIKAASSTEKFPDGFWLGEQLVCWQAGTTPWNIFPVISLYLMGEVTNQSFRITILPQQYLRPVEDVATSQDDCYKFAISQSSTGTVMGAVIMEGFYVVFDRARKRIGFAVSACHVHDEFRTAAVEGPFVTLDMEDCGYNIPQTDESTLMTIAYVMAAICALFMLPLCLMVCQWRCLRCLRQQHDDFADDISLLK
Summary of the method: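 Run in 0.05 M acetate pH 4.2 with 10% DMSO final and 100 uM genapol; started by adding 50 nM FRET peptide substrate (fluorophore and quencher flanking the cleavage site), incubated one hour, then stopped with Tris to neutral pH before reading fluorescence.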

[2] = system: Aβ40 in conditioned medium of cells stably expressing Amyloid Precursor Protein (APP); experiment: In vitro BACE cell-based assay (Aβ40 in conditioned medium, sandwich ELISA); settings: for pIC50: read-out: HEK cell assay
Summary of the method: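 Step two: 10-point compound titration added, starting 100 μM or 10 μM, 0.1% DMSO. Step three: medium Aβ40 measured by ELISA, capture 3 h and detection 2 h at 4° C, TRF read.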

[3] = Homo sapiens, HEK293, average IC50
[4] = Homo sapiens, HEK293, average IC50, HEK cells

pIC50 [1] | pIC50 [2, 3] | SMILES | other results
7.29 | 5.54 | COc1cc(F)c2c(c1)[C@]1(COC(N)=N1)c1cc(-c3cncc(C#CC4(C)COC4)c3)ccc1O2 [Example 821, (4S)-4′-fluoro-2′-methoxy-7′-(5-((3-methyl-3-oxetanyl)ethynyl)-3-pyridinyl)spiro[1,3-oxazole-4,9′-xanthen]-2-amine] | 
7.03 | 5.52 | COc1cc(F)c2c(c1)[C@]1(COC(N)=N1)c1cc(-c3cncc(C#CC(C)(C)O)c3)ccc1O2 [Example 822, 4-(5-((4S)-2-amino-5′-fluoro-7′-methoxyspiro[1,3-oxazole-4,9′-xanthen]-2′-yl)-3-pyridinyl)-2-methyl-3-butyn-2-ol] | 
7.00 | 5.37 | COc1cc(F)c2c(c1)[C@]1(COC(N)=N1)c1cc(-c3cncc(C#CC(C)(C)OC)c3)ccc1O2 [Example 823, (4S)-4′-fluoro-2′-methoxy-7′-(5-(3-methoxy-3-methyl-1-butyn-1-yl)-3-pyridinyl)spiro[1,3-oxazole-4,9′-xanthen]-2-amine] | 
9.70 | 7.70 | CC#Cc1cncc(-c2ccc3c(c2)[C@@]2(COC(N)=N2)c2cc(OC)cc(F)c2O3)c1 [Example 824, (4S)-4′-fluoro-2′-methoxy-7′-(5-(1-propyn-1-yl)-3-pyridinyl)spiro[1,3-oxazole-4,9′-xanthen]-2-amine] | 
9.52 | 8.22 | NC1=N[C@@]2(CO1)c1cc(-c3cncc(C#CCO)c3)ccc1Oc1cnc(-c3ccnc(F)c3)cc12 [Example 825, 3-(5-((5S)-2′-amino-3-(2-fluoro-4-pyridinyl)spiro[chromeno[2,3-c]pyridine-5,4′-[1,3]oxazol]-7-yl)-3-pyridinyl)-2-propyn-1-ol] | 
9.30 | 8.70 | NC1=N[C@@]2(CO1)c1cc(-c3cncc(C#CCO)c3)ccc1Oc1cnc(C3=CCCOC3)cc12 [Example 827, 3-(5-((5S)-2′-amino-3-(5,6-dihydro-2H-pyran-3-yl)spiro[chromeno[2,3-c]pyridine-5,4′-[1,3]oxazol]-7-yl)-3-pyridinyl)-2-propyn-1-ol] | 
6.87 | ≤ 5.00 | COc1nc(Cl)cc2c1Oc1ccc(-c3cccnc3F)cc1[C@@]21COC(N)=N1 [Example 828, (5S)-3-chloro-7-(2-fluoro-3-pyridinyl)-1-methoxyspiro[chromeno[2,3-c]pyridine-5,4′-[1,3]oxazol]-2′-amine] | 
7.52 | 5.39 | CC#Cc1cncc(-c2ccc3c(c2)[C@@]2(COC(N)=N2)c2cc(Cl)nc(OC)c2O3)c1 [Example 829, (5S)-3-chloro-1-methoxy-7-(5-(1-propyn-1-yl)-3-pyridinyl)spiro[chromeno[2,3-c]pyridine-5,4′-[1,3]oxazol]-2′-amine] | 
6.33 | ≤ 5.00 | COc1nc(Cl)cc2c1Oc1ccc(-c3cccnc3)cc1[C@@]21COC(N)=N1 [Example 830, (5S)-3-chloro-1-methoxy-7-(3-pyridinyl)spiro[chromeno[2,3-c]pyridine-5,4′-[1,3]oxazol]-2′-amine] | 
8.96 | 7.15 | COc1nc(-c2ccnc(F)c2)cc2c1Oc1ccc(-c3cccnc3F)cc1[C@@]21COC(N)=N1 [Example 831, (5S)-7-(2-fluoro-3-pyridinyl)-3-(2-fluoro-4-pyridinyl)-1-methoxyspiro[chromeno[2,3-c]pyridine-5,4′-[1,3]oxazol]-2′-amine] | 
 |  | COc1nc(C2=CCOCC2)cc2c1Oc1ccc(-c3cccnc3F)cc1[C@@]21COC(N)=N1 [Example 832, (5S)-3-(3,6-dihydro-2H-pyran-4-yl)-7-(2-fluoro-3-pyridinyl)-1-methoxyspiro[chromeno[2,3-c]pyridine-5,4′-[1,3]oxazol]-2′-amine] | IC50 ([1]; BACE 1 FRET assay (uM)): 0.0007 µM; IC50 ([2]; Homo sapiens, HEK293, read-out: HEK cell assay (uM), average IC50, HEK cell assay): 0.032 µM
9.15 | 7.68 | COc1nc(C2=CCCOC2)cc2c1Oc1ccc(-c3cccnc3F)cc1[C@@]21COC(N)=N1 [Example 833, (5S)-3-(5,6-dihydro-2H-pyran-3-yl)-7-(2-fluoro-3-pyridinyl)-1-methoxyspiro[chromeno[2,3-c]pyridine-5,4′-[1,3]oxazol]-2′-amine] | 
8.46 | 7.15 | COc1nc(-c2ccncc2)cc2c1Oc1ccc(-c3cccnc3F)cc1[C@@]21COC(N)=N1 [Example 834, (5S)-7-(2-fluoro-3-pyridinyl)-1-methoxy-3-(4-pyridinyl)spiro[chromeno[2,3-c]pyridine-5,4′-[1,3]oxazol]-2′-amine] | 
9.22 | 8.15 | CC#Cc1cncc(-c2ccc3c(c2)[C@@]2(COC(N)=N2)c2cc(C4=CCOCC4)nc(OC)c2O3)c1 [Example 835, (5S)-3-(3,6-dihydro-2H-pyran-4-yl)-1-methoxy-7-(5-(1-propyn-1-yl)-3-pyridinyl)spiro[chromeno[2,3-c]pyridine-5,4′-[1,3]oxazol]-2′-amine] | 
9.30 | 8.40 | CC#Cc1cncc(-c2ccc3c(c2)[C@@]2(COC(N)=N2)c2cc(C4=CCCOC4)nc(OC)c2O3)c1 [Example 836, (5S)-3-(5,6-dihydro-2H-pyran-3-yl)-1-methoxy-7-(5-(1-propyn-1-yl)-3-pyridinyl)spiro[chromeno[2,3-c]pyridine-5,4′-[1,3]oxazol]-2′-amine] | 
9.15 | 8.05 | CC#Cc1cncc(-c2ccc3c(c2)[C@@]2(COC(N)=N2)c2cc(-c4ccncc4)nc(OC)c2O3)c1 [Example 837, (5S)-1-methoxy-7-(5-(1-propyn-1-yl)-3-pyridinyl)-3-(4-pyridinyl)spiro[chromeno[2,3-c]pyridine-5,4′-[1,3]oxazol]-2′-amine] | 
8.14 | 7.70 | COc1nc(-c2ccncc2)cc2c1Oc1ccc(-c3cccnc3)cc1[C@@]21COC(N)=N1 [Example 838, (5S)-1-methoxy-7-(3-pyridinyl)-3-(4-pyridinyl)spiro[chromeno[2,3-c]pyridine-5,4′-[1,3]oxazol]-2′-amine] | 
8.37 | 7.82 | COc1nc(C2=CCOCC2)cc2c1Oc1ccc(-c3cccnc3)cc1[C@@]21COC(N)=N1 [Example 840, (5S)-3-(3,6-dihydro-2H-pyran-4-yl)-1-methoxy-7-(3-pyridinyl)spiro[chromeno[2,3-c]pyridine-5,4′-[1,3]oxazol]-2′-amine] | 
8.92 | 8.22 | COc1nc(C2=CCCOC2)cc2c1Oc1ccc(-c3cccnc3)cc1[C@@]21COC(N)=N1 [Example 841, (5S)-3-(5,6-dihydro-2H-pyran-3-yl)-1-methoxy-7-(3-pyridinyl)spiro[chromeno[2,3-c]pyridine-5,4′-[1,3]oxazol]-2′-amine] | 
7.59 | 5.59 | NC1=N[C@@]2(CO1)c1cc(-c3cccnc3F)ccc1Oc1cnc(-c3ccnc(O)c3)cc12 [Example 842, 4-((5S)-2′-amino-7-(2-fluoro-3-pyridinyl)spiro[chromeno[2,3-c]pyridine-5,4′-[1,3]oxazol]-3-yl)-2-pyridinol] | 
8.06 | 7.24 | COCC#Cc1cncc(-c2ccc3c(c2)C2(COC(N)=N2)c2cc(OC)cc(F)c2O3)c1 (centres unmarked) [Example 843, 4′-fluoro-2′-methoxy-7′-(5-(3-methoxy-1-propyn-1-yl)-3-pyridinyl)spiro[1,3-oxazole-4,9′-xanthen]-2-amine] | 
8.17 | 7.18 | COc1nc(C2CCCOC2)cc2c1Oc1ccc(-c3cccnc3F)cc1[C@@]21COC(N)=N1 (stereo partly drawn) [Example 844, (5S)-7-(2-fluoro-3-pyridinyl)-1-methoxy-3-(tetrahydro-2H-pyran-3-yl)spiro[chromeno[2,3-c]pyridine-5,4′-[1,3]oxazol]-2′-amine] | 
7.81 | 7.15 | COc1nc(C2CCCOC2)cc2c1Oc1ccc(-c3cccnc3)cc1[C@@]21COC(N)=N1 (stereo partly drawn) [Example 845, (5S)-1-methoxy-7-(3-pyridinyl)-3-(tetrahydro-2H-pyran-3-yl)spiro[chromeno[2,3-c]pyridine-5,4′-[1,3]oxazol]-2′-amine] | 
9.40 | 8.70 | C=Cc1cc2c(c(F)n1)Oc1ccc(-c3cncc(F)c3)cc1C21COC(N)=N1 (centres unmarked) [Example 848, 3-ethenyl-1-fluoro-7-(5-fluoro-3-pyridinyl)spiro[chromeno[2,3-c]pyridine-5,4′-[1,3]oxazol]-2′-amine] | 
8.38 |  | COc1nc(N2CCC(F)(F)CC2)cc2c1Oc1ccc(-c3cccnc3F)cc1[C@@]21COC(N)=N1 [Example 849, (5S)-3-(4,4-difluoro-1-piperidinyl)-7-(2-fluoro-3-pyridinyl)-1-methoxyspiro[chromeno[2,3-c]pyridine-5,4′-[1,3]oxazol]-2′-amine] | pIC50 [2, 4]: 7.11
8.35 |  | CCc1cc2c(c(F)n1)Oc1ccc(-c3cncc(F)c3)cc1[C@@]21COC(N)=N1 [Example 850, (5S)-3-ethyl-1-fluoro-7-(5-fluoro-3-pyridinyl)spiro[chromeno[2,3-c]pyridine-5,4′-[1,3]oxazol]-2′-amine] | pIC50 [2, 4]: 7.28
9.10 |  | Cc1cc(-c2cc3c(c(F)n2)Oc2ccc(-c4cccnc4F)cc2[C@@]32COC(N)=N2)on1 [Example 851, (5S)-1-fluoro-7-(2-fluoro-3-pyridinyl)-3-(3-methyl-5-isoxazolyl)spiro[chromeno[2,3-c]pyridine-5,4′-[1,3]oxazol]-2′-amine] | pIC50 [2, 4]: 8.10

SMILES | pIC50 [1] | pIC50 [2, 3] | other results
COc1nc(F)cc2c1Oc1ccc(-c3cccnc3)cc1[C@]21COC(N)=N1 [Example 847, (5R)-3-fluoro-1-methoxy-7-(3-pyridinyl)spiro[chromeno[2,3-c]pyridine-5,4′-[1,3]oxazol]-2′-amine, (5S)-3-fluoro-1-methoxy-7-(3-pyridinyl)spiro[chromeno[2,3-c]pyridine-5,4′-[1,3]oxazol]-2′-amine] | 9.40 |  | pIC50 [2]: 8.00
